In the NIST ThermoML archive (doi:10.1021/acs.jced.7b01034):

What was measured:
[1] = Crystal; DTA
[2] = Molar enthalpy of transition or fusion; conditions: Crystal; DSC
[3] = molar heat capacity at constant pressure; conditions: 100 kPa, Crystal, DSC

O=C(O)c1ccccc1 [benzoic acid]
Conditions	Molar enthalpy of transition or fusion [kcal/mol]	Normal melting temperature [°C]
[1]	–	122.2
[2]	4.44	–

[3]
Conditions	molar heat capacity at constant pressure [J/K/mol]
293.15 K	143.2
298.15 K	145.2
303.15 K	147.5
308.15 K	149.6
313.15 K	151.4
318.15 K	153
323.15 K	155.4
328.15 K	157.8
333.15 K	160
338.15 K	162.2
343.15 K	164.4
348.15 K	166.6
353.15 K	169.1
358.15 K	171.7
363.15 K	174.4
368.15 K	176.8
373.15 K	179.2
378.15 K	182
383.15 K	185.4
388.15 K	190.1

O=c1cc(-c2ccccc2)oc2ccc(O)cc12 [6-hydroxyflavone]
Conditions	Molar enthalpy of transition or fusion [kcal/mol]	Normal melting temperature [°C]
[1]	–	236.2
[2]	7.75	–

[3]
Conditions	molar heat capacity at constant pressure [J/K/mol]
293.15 K	244.4
298.15 K	250.3
303.15 K	255.3
308.15 K	260.4
313.15 K	265.7
318.15 K	271.1
323.15 K	277
328.15 K	282.6
333.15 K	287.5
338.15 K	292.7
343.15 K	297.3
348.15 K	302.4
353.15 K	307.1
358.15 K	312.4
363.15 K	317.2
368.15 K	321.9
373.15 K	326.7
378.15 K	330.6
383.15 K	335.1
388.15 K	339.8
393.15 K	344.4
398.15 K	348.9
403.15 K	353.2
408.15 K	358.3
413.15 K	362.3
418.15 K	365.8
423.15 K	370.3
428.15 K	373.7
433.15 K	376.9
438.15 K	380.8
443.15 K	383.5
448.15 K	385.7
453.15 K	388.4
458.15 K	391.5
463.15 K	394.2
468.15 K	397.1
473.15 K	399.2
478.15 K	402
483.15 K	404.1
488.15 K	406.1
493.15 K	408.4
498.15 K	412

c1cc2ccc3cccc4ccc(c1)c2c34 [pyrene]
Conditions	Molar enthalpy of transition or fusion [kcal/mol]	Normal melting temperature [°C]
[1]	–	150.8
[2]	4.15	–

[3]
Conditions	molar heat capacity at constant pressure [J/K/mol]
293.15 K	221.9
298.15 K	225.8
303.15 K	230.2
308.15 K	234.3
313.15 K	238.7
318.15 K	243
323.15 K	247.5
328.15 K	252.6
333.15 K	258.1
338.15 K	263.6
343.15 K	268.9
348.15 K	274.1
353.15 K	279.8
358.15 K	285.4
363.15 K	291.4
368.15 K	298.2
373.15 K	304.6
378.15 K	310.7
383.15 K	317.5
388.15 K	325.7
393.15 K	333.7
398.15 K	341.5
403.15 K	349.9
408.15 K	359.2
413.15 K	372.2

c1ccc2cc3ccccc3cc2c1 [anthracene]
Conditions	Molar enthalpy of transition or fusion [kcal/mol]	Normal melting temperature [°C]
[1]	–	216.6
[2]	7.33	–

[3]
Conditions	molar heat capacity at constant pressure [J/K/mol]
293.15 K	205.7
298.15 K	209.9
303.15 K	213.9
308.15 K	217.6
313.15 K	221.7
318.15 K	225.4
323.15 K	229.6
328.15 K	234.2
333.15 K	237.9
338.15 K	242.2
343.15 K	246.5
348.15 K	250.7
353.15 K	254.9
358.15 K	258.8
363.15 K	262.9
368.15 K	266.9
373.15 K	270.6
378.15 K	275.2
383.15 K	279.2
388.15 K	283.2
393.15 K	286.9
398.15 K	291.7
403.15 K	295.8
408.15 K	299.3
413.15 K	303.3
418.15 K	306.8
423.15 K	309.9
428.15 K	313.4
433.15 K	317.4

O=c1cc(-c2ccccc2)oc2cccc(O)c12 [5-hydroxyflavone]
Conditions	Molar enthalpy of transition or fusion [kcal/mol]	Normal melting temperature [°C]
[1]	–	158
[2]	6.49	–

[3]
Conditions	molar heat capacity at constant pressure [J/K/mol]
293.15 K	274.6
298.15 K	279.8
303.15 K	285.1
308.15 K	289.4
313.15 K	297
318.15 K	302.8
323.15 K	307
328.15 K	311.2
333.15 K	312.9
338.15 K	315.9
343.15 K	319.5
348.15 K	323.8
353.15 K	328.8
358.15 K	334.4
363.15 K	338.5
368.15 K	344.8
373.15 K	347.9
378.15 K	350.8
383.15 K	355.6
388.15 K	360.1
393.15 K	365.3
398.15 K	369.6
403.15 K	373.8
408.15 K	377.7
413.15 K	382.3
418.15 K	387.6
423.15 K	395.5

O=c1c(O)c(-c2ccccc2)oc2ccccc12 [3-hydroxyflavone]
Conditions	Molar enthalpy of transition or fusion [kcal/mol]	Normal melting temperature [°C]
[1]	–	170.5
[2]	7.76	–

[3]
Conditions	molar heat capacity at constant pressure [J/K/mol]
293.15 K	268.9
298.15 K	270.1
303.15 K	272.8
308.15 K	275.3
313.15 K	278.3
318.15 K	280.8
323.15 K	284.2
328.15 K	287.6
333.15 K	291.5
338.15 K	295.2
343.15 K	298.9
348.15 K	303.2
353.15 K	306.8
358.15 K	310.8
363.15 K	315
368.15 K	319.4
373.15 K	323.7
378.15 K	328
383.15 K	332
388.15 K	336.9
393.15 K	341.6
398.15 K	346.8
403.15 K	351.6
408.15 K	356.3
413.15 K	361.2
418.15 K	366
423.15 K	372.3
428.15 K	379
433.15 K	386

Nc1ccc2oc(-c3ccccc3)cc(=O)c2c1 [6-aminoflavone]
Conditions	Molar enthalpy of transition or fusion [kcal/mol]	Normal melting temperature [°C]
[1]	–	198.8
[2]	7.27	–

[3]
Conditions	molar heat capacity at constant pressure [J/K/mol]
293.15 K	272.6
298.15 K	277.9
303.15 K	283.4
308.15 K	287.6
313.15 K	292.2
318.15 K	296.7
323.15 K	301.6
328.15 K	306.3
333.15 K	311.1
338.15 K	316.1
343.15 K	320.4
348.15 K	324.5
353.15 K	328.9
358.15 K	333.6
363.15 K	338.1
368.15 K	342.2
373.15 K	346.1
378.15 K	349.8
383.15 K	353.8
388.15 K	358.5
393.15 K	361.8
398.15 K	367.2
403.15 K	371
408.15 K	374.6
413.15 K	378.3
418.15 K	381.8
423.15 K	385.4
428.15 K	390.1
433.15 K	395.3
438.15 K	400.4
443.15 K	406.4
448.15 K	411.3
453.15 K	418.5
458.15 K	427.8

O=c1cc(-c2ccccc2)oc2cc(O)ccc12 [7-hydroxyflavone]
Conditions	Molar enthalpy of transition or fusion [kcal/mol]	Normal melting temperature [°C]
[1]	–	242.1
[2]	7.46	–

[3]
Conditions	molar heat capacity at constant pressure [J/K/mol]
293.15 K	248.1
298.15 K	253.1
303.15 K	259.1
308.15 K	263.4
313.15 K	268.2
318.15 K	272
323.15 K	276.8
328.15 K	282.1
333.15 K	286
338.15 K	291.4
343.15 K	295.3
348.15 K	299.4
353.15 K	303.6
358.15 K	307.6
363.15 K	312.3
368.15 K	316.2
373.15 K	320.7
378.15 K	324.4
383.15 K	328.2
388.15 K	332.4
393.15 K	336
398.15 K	340.1
403.15 K	343.3
408.15 K	347
413.15 K	351.4
418.15 K	355.2
423.15 K	358.2
428.15 K	361.9
433.15 K	366.3
438.15 K	369.6
443.15 K	372.3
448.15 K	376.7
453.15 K	379.5
458.15 K	382.7
463.15 K	385.8
468.15 K	388.5
473.15 K	390.8
478.15 K	391.9
483.15 K	394
488.15 K	398.1
493.15 K	400.9
498.15 K	406.2
